According to ChEMBL document CHEMBL5252605, “Design, synthesis, and biological testing of biphenylmethyloxazole inhibitors targeting HIV-1 reverse transcriptase” (Bioorg Med Chem Lett, 2023):
The source made the active and inactive calls. The rule behind the calls is not given here.

Legend:
[1] = molecular target: Human immunodeficiency virus type 1 reverse transcriptase (Human immunodeficiency virus 1, UniProt Q72547); experiment: Inhibition of recombinant wildtype HIV-1 reverse transcriptase using r(A)350 as template and d(T)16 as primer preincubated with compound for 1 hrs followed by template/primer addition and measured after 30 mins by picogreen based plate reader analysis
[2] = test system: Human immunodeficiency virus 1; experiment: Antiviral activity against wildtype HIV-1 IIIb infected in human MT2 cells assessed as protection of viral infected cells; format: functional, organism-based; details: for EC50: Human immunodeficiency virus 1, IIIB
MT2 = experiment: Cytotoxicity against human MT2 cells assessed as inhibition of cell growth; format: toxicity, cell-based
[3] = molecular target: Human immunodeficiency virus type 1 reverse transcriptase (Human immunodeficiency virus 1) (UniProt Q72547); experiment: Time dependent inhibition of recombinant wildtype HIV-1 reverse transcriptase at 0.1 to 1000000 nM; details: dose 0.1-1e+06 nM, time 1-48 hrs

Molecule `N#Cc1ccc(Nc2ncc(Cc3c(F)cc(-c4ccccc4)cc3F)o2)cc1` has an IC50 [1] of 0.02 µM, an EC50 [2] of 0.17 µM and a CC50 (MT2) of 59 µM.

With `N#Cc1ccc(Nc2ncc(Cc3c(F)cccc3F)o2)cc1Cl` the EC50 [2] was 0.0062 µM.

For `N#Cc1ccc(Nc2ncc(Cc3c(F)cc(-c4ccc(O)cc4)cc3F)o2)cc1`, the IC50 [1] was > 1 µM, the EC50 [2] was 5.5 µM and the CC50 (MT2) was 15 µM.

For `N#Cc1ccc(Nc2ncc(Cc3c(F)cc(-c4ccc(C5CO5)cc4)cc3F)o2)cc1Cl` (configuration not stated), the IC50 [1] was 0.44 µM, the EC50 [2] was 0.61 µM and the CC50 (MT2) was 25 µM. The TDI [3] was “inactive”.

For `N#Cc1ccc(Nc2ncc(Cc3c(F)cc(-c4ccc(O)cc4)cc3F)o2)cc1Cl`, the IC50 [1] was 0.28 µM, the EC50 [2] was 1.3 µM and the CC50 (MT2) was 15 µM.

In the case of `N#Cc1ccc(Nc2ncc(Cc3c(F)cc(-c4ccc(OS(=O)(=O)F)cc4)cc3F)o2)cc1`, the IC50 [1] is reported as > 20 µM, the Activity [2] is reported as “inactive” and the CC50 (MT2) is reported as 30 µM. For the same molecule, the TDI [3] was “inactive”.

In the case of `COc1ccc(-c2ccc(Cc3cnc(Nc4ccc(C#N)cc4)o3)cc2)cc1`, the IC50 [1] is reported as > 10 µM, the Activity [2] is reported as “inactive” and the CC50 (MT2) is reported as 27 µM.

For `C=Cc1ccc(-c2cc(F)c(Cc3cnc(Nc4ccc(C#N)c(Cl)c4)o3)c(F)c2)cc1`, the IC50 [1] was 0.017 µM, the EC50 [2] was 0.019 µM and the CC50 (MT2) was 30 µM.

Molecule `N#Cc1ccc(Nc2ncc(Cc3c(F)cc(-c4ccc(C#N)cc4)cc3F)o2)cc1` has an IC50 [1] of 0.011 µM, an EC50 [2] of 0.03 µM and a CC50 (MT2) of 9 µM.

With `N#Cc1ccc(Nc2ncc(Cc3ccc(-c4ccccc4)cc3)o2)cc1` the IC50 [1] was > 100 µM, the Activity [2] was “inactive” and the CC50 (MT2) was 80 µM.

In the case of `N#Cc1ccc(-c2cc(F)c(Cc3cnc(Nc4ccc(C#N)c(Cl)c4)o3)c(F)c2)cc1`, the IC50 [1] is reported as < 0.01 µM, the EC50 [2] is reported as 0.016 µM and the CC50 (MT2) is reported as 9.5 µM.

In the case of `N#Cc1ccc(Nc2ncc(Cc3c(F)cc(-c4ccc(OS(=O)(=O)F)cc4)cc3F)o2)cc1Cl`, the IC50 [1] is reported as 3 µM, the EC50 [2] is reported as 4.3 µM and the CC50 (MT2) is reported as 25 µM. The TDI [3] was “inactive”.
